# Measurements reported in ChEMBL document CHEMBL5465560, “Selectivity Literature for EUbOPEN Chemogenomic Library” (2024).
# Tests used:
# [1] = target: T1, Serine/threonine-protein kinase LATS1 (Homo sapiens) (UniProt O95835); test: Selectivity interaction (KinomeScan (DiscoverX)) EUB0000618a LATS1; settings: at 10 µM
# T1 sequence (whole entry): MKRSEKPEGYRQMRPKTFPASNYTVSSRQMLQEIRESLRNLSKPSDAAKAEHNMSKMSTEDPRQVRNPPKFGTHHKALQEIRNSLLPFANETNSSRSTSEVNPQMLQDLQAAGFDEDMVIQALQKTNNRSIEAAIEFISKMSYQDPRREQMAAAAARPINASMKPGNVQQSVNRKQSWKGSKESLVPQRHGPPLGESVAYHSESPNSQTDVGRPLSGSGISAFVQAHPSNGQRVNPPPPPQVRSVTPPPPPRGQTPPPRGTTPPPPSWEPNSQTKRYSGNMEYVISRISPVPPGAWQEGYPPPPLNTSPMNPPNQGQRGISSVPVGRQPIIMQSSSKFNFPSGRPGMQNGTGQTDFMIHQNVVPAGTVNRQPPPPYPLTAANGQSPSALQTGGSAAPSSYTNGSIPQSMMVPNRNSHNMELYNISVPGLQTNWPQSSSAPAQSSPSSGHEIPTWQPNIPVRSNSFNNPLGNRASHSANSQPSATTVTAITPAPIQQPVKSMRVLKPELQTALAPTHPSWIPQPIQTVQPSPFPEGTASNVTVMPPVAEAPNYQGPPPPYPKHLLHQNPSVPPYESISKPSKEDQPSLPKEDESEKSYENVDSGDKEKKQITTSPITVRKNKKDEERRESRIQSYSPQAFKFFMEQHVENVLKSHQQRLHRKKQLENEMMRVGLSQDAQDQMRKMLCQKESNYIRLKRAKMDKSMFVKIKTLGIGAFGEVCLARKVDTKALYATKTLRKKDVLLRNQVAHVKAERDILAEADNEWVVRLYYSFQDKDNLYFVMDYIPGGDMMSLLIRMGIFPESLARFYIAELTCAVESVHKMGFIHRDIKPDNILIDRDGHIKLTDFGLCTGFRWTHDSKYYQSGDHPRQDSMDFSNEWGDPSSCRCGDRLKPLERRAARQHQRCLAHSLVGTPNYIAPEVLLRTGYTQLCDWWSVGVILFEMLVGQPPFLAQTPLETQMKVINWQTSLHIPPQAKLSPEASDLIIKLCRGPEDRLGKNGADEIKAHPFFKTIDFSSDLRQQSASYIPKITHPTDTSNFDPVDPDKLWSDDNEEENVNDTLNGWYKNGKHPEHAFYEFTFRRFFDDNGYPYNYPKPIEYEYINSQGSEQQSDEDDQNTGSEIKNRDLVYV
# [2] = target: Tyrosine-protein kinase JAK1 (Homo sapiens, UniProt P23458); test: Selectivity interaction (KinomeScan (DiscoverX)) EUB0001619a JAK1; settings: at 1 µM
# [3] = target: T2, Serine/threonine-protein kinase Nek9 (Homo sapiens) (UniProt Q8TD19); test: Selectivity interaction (KinomeScan (DiscoverX)) EUB0000229b NEK9; settings: at 10 µM
# T2 sequence (whole entry): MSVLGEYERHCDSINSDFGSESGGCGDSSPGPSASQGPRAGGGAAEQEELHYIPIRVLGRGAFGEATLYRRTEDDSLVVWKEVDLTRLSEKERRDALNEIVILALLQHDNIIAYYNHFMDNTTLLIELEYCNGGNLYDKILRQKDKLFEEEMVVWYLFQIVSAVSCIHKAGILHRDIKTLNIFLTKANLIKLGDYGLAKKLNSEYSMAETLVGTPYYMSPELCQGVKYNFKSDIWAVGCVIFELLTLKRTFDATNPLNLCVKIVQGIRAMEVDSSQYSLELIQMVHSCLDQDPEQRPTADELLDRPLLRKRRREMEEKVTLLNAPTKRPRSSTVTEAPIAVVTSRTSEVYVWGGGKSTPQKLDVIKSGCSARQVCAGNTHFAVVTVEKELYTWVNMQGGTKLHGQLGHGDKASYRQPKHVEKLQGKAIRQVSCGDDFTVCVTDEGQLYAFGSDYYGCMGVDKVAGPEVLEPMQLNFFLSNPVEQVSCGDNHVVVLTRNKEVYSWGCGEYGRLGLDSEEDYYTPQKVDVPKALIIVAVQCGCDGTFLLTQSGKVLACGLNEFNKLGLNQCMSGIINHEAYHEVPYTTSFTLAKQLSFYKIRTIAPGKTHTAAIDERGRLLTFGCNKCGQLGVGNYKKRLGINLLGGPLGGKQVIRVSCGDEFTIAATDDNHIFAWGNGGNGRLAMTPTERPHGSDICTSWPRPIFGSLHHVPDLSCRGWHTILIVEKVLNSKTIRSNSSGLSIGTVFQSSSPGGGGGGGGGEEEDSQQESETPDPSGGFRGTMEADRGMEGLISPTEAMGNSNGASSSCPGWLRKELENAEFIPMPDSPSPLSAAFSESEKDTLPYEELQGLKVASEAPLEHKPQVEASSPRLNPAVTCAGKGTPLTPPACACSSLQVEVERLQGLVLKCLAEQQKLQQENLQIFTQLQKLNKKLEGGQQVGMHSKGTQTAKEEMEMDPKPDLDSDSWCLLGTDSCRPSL
# [4] = target: Serine/threonine-protein kinase VRK2 (Homo sapiens) (UniProt Q86Y07); test: Selectivity interaction (KinomeScan (DiscoverX)) EUB0000092b VRK2; settings: at 10 µM
# [5] = target: Microtubule-associated serine/threonine-protein kinase 1 (Homo sapiens) (UniProt Q9Y2H9); test: Selectivity interaction (KinomeScan (DiscoverX)) EUB0000695a MAST1; settings: at 100 nM
# Chain of Microtubule-associated serine/threonine-protein kinase 1 (Homo sapiens) (Q9Y2H9 whole entry, looked up): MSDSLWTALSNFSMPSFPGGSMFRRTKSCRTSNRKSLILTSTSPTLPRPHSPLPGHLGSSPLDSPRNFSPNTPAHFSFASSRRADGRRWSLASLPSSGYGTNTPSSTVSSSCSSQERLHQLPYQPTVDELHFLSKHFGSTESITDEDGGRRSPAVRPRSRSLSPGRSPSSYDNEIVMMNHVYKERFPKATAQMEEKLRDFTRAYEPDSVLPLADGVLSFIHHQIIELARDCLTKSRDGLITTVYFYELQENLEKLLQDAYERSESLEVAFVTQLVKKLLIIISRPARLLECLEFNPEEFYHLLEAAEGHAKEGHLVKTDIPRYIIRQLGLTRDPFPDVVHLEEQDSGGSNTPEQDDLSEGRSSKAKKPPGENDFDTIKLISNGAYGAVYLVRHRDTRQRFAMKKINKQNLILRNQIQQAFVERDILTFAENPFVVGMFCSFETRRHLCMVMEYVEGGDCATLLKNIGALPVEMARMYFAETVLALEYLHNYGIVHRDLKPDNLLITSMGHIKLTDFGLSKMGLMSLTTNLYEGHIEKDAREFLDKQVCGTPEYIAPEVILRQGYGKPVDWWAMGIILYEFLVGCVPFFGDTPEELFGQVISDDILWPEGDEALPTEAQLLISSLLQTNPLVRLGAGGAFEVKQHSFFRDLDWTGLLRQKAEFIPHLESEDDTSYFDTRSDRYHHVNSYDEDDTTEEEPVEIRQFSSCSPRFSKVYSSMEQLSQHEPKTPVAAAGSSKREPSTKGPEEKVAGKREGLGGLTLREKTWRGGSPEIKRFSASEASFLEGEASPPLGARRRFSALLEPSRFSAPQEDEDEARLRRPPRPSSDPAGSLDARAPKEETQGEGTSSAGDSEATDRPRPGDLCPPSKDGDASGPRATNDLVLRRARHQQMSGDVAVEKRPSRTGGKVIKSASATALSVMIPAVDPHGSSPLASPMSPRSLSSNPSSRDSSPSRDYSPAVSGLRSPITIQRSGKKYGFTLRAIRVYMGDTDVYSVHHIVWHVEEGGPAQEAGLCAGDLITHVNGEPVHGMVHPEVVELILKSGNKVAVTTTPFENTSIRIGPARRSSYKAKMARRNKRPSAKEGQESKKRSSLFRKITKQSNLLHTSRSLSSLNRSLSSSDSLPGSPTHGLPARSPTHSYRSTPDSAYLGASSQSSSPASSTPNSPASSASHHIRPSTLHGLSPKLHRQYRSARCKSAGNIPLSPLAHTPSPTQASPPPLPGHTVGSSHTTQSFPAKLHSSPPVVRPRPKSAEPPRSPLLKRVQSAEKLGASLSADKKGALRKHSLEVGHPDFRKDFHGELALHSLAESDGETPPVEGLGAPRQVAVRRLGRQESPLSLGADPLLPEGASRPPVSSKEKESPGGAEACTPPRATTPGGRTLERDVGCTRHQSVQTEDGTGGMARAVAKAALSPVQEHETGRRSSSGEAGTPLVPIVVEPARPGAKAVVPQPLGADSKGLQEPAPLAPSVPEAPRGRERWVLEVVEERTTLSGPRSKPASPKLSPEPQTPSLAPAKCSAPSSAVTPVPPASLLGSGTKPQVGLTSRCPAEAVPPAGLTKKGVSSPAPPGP
# Chain of Serine/threonine-protein kinase VRK2 (Homo sapiens) (Q86Y07 whole entry): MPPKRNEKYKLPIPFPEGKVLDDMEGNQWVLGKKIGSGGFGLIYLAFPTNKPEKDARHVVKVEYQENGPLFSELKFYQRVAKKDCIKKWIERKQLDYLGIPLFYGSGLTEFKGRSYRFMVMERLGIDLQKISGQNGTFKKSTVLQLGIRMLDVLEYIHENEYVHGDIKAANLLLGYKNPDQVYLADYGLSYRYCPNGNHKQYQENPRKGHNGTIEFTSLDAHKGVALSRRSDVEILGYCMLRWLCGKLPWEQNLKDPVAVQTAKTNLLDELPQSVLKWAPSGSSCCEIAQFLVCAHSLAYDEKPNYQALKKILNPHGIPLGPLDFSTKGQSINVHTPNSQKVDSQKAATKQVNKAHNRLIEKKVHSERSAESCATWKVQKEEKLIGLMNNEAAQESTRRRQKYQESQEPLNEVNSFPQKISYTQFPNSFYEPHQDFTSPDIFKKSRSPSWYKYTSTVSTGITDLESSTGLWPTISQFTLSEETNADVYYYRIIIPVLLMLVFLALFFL
# Chain of Tyrosine-protein kinase JAK1 (P23458 whole entry): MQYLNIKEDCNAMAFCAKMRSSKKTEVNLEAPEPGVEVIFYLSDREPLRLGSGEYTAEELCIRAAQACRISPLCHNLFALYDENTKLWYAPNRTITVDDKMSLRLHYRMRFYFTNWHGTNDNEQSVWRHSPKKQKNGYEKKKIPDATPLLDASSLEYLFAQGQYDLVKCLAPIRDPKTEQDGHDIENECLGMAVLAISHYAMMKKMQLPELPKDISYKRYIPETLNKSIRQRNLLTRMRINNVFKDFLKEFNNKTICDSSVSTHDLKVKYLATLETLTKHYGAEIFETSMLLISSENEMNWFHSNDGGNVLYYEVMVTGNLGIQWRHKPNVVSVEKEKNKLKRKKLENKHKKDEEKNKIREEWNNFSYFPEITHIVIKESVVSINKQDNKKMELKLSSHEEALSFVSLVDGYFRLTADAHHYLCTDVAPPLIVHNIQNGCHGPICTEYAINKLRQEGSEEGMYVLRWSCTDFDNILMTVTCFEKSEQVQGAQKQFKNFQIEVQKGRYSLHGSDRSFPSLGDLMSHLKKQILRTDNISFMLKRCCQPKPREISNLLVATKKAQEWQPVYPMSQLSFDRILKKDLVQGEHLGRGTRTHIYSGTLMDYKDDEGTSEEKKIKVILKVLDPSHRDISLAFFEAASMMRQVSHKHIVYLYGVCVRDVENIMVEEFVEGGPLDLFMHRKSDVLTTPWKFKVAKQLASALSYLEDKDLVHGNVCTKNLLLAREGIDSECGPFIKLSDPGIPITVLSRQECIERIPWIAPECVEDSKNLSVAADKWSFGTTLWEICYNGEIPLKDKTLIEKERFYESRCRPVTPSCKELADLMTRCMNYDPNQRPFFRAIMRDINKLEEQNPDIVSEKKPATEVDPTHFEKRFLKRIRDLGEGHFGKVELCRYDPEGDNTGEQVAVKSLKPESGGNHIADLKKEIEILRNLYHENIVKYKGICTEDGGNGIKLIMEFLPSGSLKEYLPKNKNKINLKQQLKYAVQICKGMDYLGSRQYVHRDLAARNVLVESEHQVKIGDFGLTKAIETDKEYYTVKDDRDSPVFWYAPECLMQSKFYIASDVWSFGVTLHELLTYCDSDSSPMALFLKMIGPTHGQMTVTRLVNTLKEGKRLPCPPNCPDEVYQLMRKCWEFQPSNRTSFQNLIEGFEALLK
smiles,measurement,setting,value
O[C@H]1CC[C@H](Nc2ncc3nc(Nc4c(F)cc(F)cc4F)n([C@H]4CCOC4)c3n2)CC1,% of control,[1],100%
N#Cc1cccc(-c2c[nH]c3ncnc(N4CCOCC4)c23)c1,% of control,[2],100%
COc1cc(N(C)c2ccnc3ccc(C(F)(F)F)cc23)cc(OC)c1OC,% binding,[3],93%
CCC(=O)N1CCN(c2ccc(-n3c(=O)ccc4cnc5ccc(-c6cnc7ccccc7c6)cc5c43)cc2C(F)(F)F)CC1,% of control,[4],100%
Cc1cc(F)c(C(=O)Nc2cccc(-c3nncn3C(C)C)n2)cc1-n1cnc(C2CC2)c1,% of control,[5],87%
